In ChEMBL document CHEMBL1152560, “Substituted 2-arylbenzothiazoles as kinase inhibitors: hit-to-lead optimization” (Bioorg Med Chem, 2009) one finds residual activity data, which are given here for 3 compounds.

In assay [1] the target is Casein kinase I isoform epsilon (Homo sapiens) (UniProt P49674). Description: Residual activity of CK1epsilon at 0.1 uM by microplate scintillation counting.
Assay [2] concerns the target T1, Serine/threonine-protein kinase Nek2 (Homo sapiens) (UniProt P51955).
T1 sequence (whole entry): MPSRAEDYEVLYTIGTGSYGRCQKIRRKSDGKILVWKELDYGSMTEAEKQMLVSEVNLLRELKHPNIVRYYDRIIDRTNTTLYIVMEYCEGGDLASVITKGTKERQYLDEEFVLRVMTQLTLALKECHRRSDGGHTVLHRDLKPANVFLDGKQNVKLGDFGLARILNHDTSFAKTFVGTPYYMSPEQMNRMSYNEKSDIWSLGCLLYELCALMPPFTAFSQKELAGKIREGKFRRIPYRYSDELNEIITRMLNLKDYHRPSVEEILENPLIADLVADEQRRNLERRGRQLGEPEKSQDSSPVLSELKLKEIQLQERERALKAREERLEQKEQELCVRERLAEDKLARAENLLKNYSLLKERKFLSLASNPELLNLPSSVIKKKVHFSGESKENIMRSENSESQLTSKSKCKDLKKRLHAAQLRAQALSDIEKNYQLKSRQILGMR
Briefly: Residual activity of NEK2 at 0.1 uM by microplate scintillation counting.

In assay [3] the test system is RAF proto-oncogene serine/threonine-protein kinase (Homo sapiens), P04049 [Y340D,Y341D]. Briefly: Residual activity of RAF1 Y340D/Y341D mutant at 0.1 uM by microplate scintillation counting.
In assay [4] the target is Ribosomal protein S6 kinase alpha-4 (Homo sapiens) (UniProt O75676). Description: Residual activity of RPS6KA4 at 10 uM by microplate scintillation counting.
In assay [5] the target is Myosin light chain kinase 2, skeletal/cardiac muscle (Homo sapiens) (UniProt Q9H1R3). Briefly: Residual activity of MYLK2 at 1 uM by microplate scintillation counting.
Assay [6] concerns the target Tyrosine-protein kinase Fgr (Homo sapiens) (UniProt P09769). Description: Residual activity of FGR at 10 uM by microplate scintillation counting.
For assay [7], the target named is Interferon-induced, double-stranded RNA-activated protein kinase (Homo sapiens) (UniProt P19525). Description: Residual activity of EIF2AK2 at 1 uM by microplate scintillation counting.
In assay [8] the test system is Mast/stem cell growth factor receptor Kit (Homo sapiens), P10721 [T670I]. Description: Residual activity of KIT T670I mutant at 10 uM by microplate scintillation counting.
In assay [9] the target is T2, Serine/threonine-protein kinase 3 (Homo sapiens) (UniProt Q13188).
T2 sequence (whole entry): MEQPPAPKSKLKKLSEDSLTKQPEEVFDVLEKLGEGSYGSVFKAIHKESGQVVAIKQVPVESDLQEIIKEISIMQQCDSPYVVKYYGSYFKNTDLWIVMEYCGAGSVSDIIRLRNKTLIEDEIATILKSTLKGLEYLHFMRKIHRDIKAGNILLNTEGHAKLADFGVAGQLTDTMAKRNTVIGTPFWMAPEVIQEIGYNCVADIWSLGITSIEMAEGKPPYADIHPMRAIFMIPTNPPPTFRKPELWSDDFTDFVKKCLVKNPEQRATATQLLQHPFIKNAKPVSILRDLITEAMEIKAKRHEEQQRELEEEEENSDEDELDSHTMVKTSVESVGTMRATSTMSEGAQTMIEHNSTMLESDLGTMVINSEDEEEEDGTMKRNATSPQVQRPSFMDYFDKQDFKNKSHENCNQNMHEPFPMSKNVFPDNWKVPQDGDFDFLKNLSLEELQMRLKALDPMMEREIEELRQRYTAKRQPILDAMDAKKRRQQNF
Briefly: Residual activity of MST2 at 1 uM by microplate scintillation counting.

The target of assay [10] is T3, Serine/threonine-protein kinase 4 (Homo sapiens) (UniProt Q13043).
T3 sequence (whole entry): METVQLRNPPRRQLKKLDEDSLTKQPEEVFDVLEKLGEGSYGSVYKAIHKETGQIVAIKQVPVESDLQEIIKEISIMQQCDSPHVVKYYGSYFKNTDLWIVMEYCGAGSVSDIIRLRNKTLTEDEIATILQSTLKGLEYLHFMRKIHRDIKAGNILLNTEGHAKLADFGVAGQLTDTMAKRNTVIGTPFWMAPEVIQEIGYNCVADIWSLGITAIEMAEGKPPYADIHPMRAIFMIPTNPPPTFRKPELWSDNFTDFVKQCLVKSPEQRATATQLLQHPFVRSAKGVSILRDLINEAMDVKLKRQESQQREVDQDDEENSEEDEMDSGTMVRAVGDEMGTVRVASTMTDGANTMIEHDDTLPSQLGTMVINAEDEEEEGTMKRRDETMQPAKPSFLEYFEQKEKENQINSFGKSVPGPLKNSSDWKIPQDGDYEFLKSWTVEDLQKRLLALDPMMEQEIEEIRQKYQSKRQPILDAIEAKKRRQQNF
Description: Residual activity of MST1 at 10 uM by microplate scintillation counting.

Assay [11] concerns the target T4, Testis-specific serine/threonine-protein kinase 1 (Homo sapiens) (UniProt Q9BXA7).
T4 sequence (whole entry): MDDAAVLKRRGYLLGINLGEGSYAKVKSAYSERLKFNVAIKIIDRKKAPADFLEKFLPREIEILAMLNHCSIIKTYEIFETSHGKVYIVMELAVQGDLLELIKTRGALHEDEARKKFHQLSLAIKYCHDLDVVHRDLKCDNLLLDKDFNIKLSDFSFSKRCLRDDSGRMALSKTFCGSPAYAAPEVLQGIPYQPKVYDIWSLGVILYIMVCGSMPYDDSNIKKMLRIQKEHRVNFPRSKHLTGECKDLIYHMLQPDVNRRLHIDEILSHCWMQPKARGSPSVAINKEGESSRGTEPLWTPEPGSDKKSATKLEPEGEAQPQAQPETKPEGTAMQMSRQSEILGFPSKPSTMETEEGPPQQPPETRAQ
Description: Residual activity of TSSK1 at 0.1 uM by microplate scintillation counting.

The target of assay [12] is Non-receptor tyrosine-protein kinase TYK2 (Homo sapiens) (UniProt P29597). Briefly: Residual activity of TYK2 at 10 uM by microplate scintillation counting.
In assay [13] the target is Misshapen-like kinase 1 (Homo sapiens) (UniProt Q8N4C8). Briefly: Residual activity of MINK1 at 0.1 uM by microplate scintillation counting.
For assay [14], the target named is MAP kinase-activated protein kinase 3 (Homo sapiens) (UniProt Q16644). Description: Residual activity of MAPKAPK3 at 10 uM by microplate scintillation counting.
Chain of MAP kinase-activated protein kinase 3 (Homo sapiens) (Q16644 whole entry, looked up): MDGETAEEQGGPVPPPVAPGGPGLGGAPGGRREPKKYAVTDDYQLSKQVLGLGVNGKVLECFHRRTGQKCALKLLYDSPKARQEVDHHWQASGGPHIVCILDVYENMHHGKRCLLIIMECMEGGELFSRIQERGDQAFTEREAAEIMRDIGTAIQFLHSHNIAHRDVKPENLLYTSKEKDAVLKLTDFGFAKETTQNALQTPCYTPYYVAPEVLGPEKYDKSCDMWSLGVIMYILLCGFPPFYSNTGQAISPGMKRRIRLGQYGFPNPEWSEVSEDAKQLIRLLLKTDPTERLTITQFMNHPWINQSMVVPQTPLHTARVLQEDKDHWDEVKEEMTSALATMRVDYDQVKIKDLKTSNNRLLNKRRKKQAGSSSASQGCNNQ

Chain of Ribosomal protein S6 kinase alpha-4 (Homo sapiens) (O75676 whole entry, looked up): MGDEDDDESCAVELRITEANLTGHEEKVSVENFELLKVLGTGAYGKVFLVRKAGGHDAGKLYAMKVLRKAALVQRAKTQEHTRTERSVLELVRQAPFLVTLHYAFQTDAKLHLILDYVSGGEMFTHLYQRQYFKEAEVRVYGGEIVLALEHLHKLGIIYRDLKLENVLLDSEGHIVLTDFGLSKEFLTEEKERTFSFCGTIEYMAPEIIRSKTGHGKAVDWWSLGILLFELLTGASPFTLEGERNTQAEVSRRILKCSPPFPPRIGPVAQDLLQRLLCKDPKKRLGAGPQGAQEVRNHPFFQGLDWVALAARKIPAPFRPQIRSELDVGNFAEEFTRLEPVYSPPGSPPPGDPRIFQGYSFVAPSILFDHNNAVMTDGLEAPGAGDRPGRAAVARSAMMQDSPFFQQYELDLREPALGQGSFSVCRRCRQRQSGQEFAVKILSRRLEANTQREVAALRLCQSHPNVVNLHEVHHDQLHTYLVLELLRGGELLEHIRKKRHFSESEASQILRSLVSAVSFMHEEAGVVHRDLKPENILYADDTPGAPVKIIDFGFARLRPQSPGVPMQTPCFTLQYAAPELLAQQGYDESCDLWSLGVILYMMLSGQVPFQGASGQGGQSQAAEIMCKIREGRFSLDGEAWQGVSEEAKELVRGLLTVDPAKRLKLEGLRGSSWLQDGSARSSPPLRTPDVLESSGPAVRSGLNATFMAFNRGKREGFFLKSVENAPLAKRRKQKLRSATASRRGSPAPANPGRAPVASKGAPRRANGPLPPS
Chain of Mast/stem cell growth factor receptor Kit (Homo sapiens), P10721 [T670I] (P10721 whole entry T670I): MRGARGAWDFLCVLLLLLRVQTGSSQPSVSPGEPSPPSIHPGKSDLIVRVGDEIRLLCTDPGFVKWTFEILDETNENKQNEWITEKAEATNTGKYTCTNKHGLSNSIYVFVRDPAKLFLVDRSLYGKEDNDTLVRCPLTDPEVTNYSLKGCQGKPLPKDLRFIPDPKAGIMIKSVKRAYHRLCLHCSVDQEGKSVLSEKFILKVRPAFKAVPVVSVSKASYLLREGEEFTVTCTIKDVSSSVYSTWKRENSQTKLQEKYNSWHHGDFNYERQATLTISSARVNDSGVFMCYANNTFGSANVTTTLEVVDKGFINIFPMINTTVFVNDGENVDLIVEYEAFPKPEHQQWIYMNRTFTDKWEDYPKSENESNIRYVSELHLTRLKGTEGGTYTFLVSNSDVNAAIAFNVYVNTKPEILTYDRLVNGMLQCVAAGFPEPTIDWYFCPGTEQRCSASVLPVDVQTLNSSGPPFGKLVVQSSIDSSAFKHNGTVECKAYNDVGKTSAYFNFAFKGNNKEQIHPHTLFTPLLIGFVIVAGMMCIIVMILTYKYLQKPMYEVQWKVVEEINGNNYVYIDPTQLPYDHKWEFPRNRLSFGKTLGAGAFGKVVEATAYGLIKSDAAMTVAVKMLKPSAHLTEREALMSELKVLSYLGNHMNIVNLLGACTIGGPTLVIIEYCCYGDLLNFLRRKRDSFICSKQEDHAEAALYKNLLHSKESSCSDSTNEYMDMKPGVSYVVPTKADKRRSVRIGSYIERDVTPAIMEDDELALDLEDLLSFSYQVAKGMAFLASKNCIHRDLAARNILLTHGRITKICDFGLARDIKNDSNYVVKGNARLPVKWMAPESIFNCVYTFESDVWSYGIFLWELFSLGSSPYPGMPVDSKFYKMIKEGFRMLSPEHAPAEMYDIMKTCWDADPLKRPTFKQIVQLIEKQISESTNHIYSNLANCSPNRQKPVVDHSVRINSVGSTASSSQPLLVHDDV
Chain of Tyrosine-protein kinase Fgr (Homo sapiens) (P09769 2-529 limits assumed): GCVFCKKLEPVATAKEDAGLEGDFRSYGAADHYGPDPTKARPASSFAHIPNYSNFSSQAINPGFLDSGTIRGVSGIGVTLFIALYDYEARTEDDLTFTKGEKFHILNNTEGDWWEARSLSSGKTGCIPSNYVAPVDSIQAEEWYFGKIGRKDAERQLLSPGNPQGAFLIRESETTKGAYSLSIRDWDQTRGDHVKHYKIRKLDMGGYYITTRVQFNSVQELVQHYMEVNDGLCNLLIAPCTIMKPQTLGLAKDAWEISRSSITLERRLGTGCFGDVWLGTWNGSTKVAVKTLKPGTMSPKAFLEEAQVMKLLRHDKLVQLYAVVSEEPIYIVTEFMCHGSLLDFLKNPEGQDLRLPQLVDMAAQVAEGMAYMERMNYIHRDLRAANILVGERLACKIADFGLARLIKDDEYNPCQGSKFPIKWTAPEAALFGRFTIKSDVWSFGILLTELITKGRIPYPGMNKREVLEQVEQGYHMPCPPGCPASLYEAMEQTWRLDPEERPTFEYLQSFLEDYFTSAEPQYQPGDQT
Chain of Casein kinase I isoform epsilon (Homo sapiens) (P49674 whole entry, looked up, canonical isoform): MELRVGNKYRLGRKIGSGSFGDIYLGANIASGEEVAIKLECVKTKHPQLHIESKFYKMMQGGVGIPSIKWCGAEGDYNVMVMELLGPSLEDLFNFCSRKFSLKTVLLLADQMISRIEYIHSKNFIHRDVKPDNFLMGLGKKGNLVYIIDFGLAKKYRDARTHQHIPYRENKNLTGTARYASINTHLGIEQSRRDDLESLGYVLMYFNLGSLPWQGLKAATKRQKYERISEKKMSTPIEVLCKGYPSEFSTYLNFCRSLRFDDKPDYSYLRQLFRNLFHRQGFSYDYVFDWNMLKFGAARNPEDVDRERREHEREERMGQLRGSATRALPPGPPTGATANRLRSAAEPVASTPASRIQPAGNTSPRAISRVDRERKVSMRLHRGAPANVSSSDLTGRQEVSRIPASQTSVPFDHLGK
Chain of Non-receptor tyrosine-protein kinase TYK2 (Homo sapiens) (P29597 whole entry): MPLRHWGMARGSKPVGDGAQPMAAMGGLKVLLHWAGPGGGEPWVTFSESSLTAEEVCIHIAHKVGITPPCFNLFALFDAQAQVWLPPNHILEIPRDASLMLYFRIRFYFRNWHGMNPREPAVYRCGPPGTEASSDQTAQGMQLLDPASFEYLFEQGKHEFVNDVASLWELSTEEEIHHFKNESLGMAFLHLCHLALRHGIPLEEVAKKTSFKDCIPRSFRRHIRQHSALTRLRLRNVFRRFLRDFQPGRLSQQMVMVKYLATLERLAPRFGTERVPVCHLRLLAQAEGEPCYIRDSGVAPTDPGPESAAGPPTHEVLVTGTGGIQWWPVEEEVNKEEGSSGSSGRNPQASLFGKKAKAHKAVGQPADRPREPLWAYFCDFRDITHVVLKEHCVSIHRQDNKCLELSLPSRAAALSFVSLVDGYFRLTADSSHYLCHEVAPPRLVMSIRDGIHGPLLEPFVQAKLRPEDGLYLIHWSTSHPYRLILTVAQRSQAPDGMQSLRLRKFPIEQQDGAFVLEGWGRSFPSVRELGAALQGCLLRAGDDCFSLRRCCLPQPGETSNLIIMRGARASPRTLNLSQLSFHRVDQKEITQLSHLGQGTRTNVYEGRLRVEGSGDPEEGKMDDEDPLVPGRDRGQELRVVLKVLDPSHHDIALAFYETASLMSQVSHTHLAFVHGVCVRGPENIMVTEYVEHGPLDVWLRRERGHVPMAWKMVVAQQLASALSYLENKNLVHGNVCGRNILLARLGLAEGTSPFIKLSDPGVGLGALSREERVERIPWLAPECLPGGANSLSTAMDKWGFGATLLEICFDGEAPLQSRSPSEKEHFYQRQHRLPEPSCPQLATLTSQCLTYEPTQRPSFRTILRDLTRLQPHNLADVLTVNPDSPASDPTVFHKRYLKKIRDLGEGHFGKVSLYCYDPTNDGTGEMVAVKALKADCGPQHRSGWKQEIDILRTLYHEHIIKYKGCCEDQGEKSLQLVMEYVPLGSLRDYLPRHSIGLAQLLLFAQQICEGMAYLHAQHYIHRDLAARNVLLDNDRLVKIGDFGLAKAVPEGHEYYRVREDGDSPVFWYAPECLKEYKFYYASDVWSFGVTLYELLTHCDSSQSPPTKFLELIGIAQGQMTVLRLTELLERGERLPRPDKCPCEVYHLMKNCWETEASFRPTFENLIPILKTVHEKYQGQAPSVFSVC
Chain of Interferon-induced, double-stranded RNA-activated protein kinase (Homo sapiens) (P19525 whole entry): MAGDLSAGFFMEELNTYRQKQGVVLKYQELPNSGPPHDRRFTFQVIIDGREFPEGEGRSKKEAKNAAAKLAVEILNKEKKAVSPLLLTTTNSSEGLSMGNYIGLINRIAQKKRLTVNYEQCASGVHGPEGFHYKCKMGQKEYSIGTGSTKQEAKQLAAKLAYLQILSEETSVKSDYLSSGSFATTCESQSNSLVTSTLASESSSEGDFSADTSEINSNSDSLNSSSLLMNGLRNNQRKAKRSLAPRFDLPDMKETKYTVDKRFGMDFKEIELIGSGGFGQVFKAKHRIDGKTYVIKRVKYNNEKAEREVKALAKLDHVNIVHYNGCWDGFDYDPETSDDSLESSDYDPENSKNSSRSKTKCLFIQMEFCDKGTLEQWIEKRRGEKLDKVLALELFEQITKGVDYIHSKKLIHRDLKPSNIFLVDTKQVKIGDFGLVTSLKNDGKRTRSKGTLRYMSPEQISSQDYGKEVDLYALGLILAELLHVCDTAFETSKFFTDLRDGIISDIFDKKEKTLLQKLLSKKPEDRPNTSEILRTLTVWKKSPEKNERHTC

On to `COc1cc2c(Oc3ccc(-c4nc5ccccc5s4)cc3)ncnc2cc1OCCCN1CCCC1`, for which the residual activity in assay [1] came to 89%; in assay [2], 94%; in assay [3], 95%; in assay [4] it was 162%; in assay [5], 140%; in assay [6], 90%. The residual activity in assay [7] was 83%; in assay [8], 52%; in [9] it was 66%; in assay [10] it was 30%; in [11], 49%; in [12], 72%. Also, the residual activity in [13] was found to be 101%; in assay [14], 67%.
In the case of `COc1cc2c(Oc3ccc(-c4nc5ccccc5s4)cc3F)ncnc2cc1OCCCN1CCN(C)CC1`, the residual activity is 79% in assay [1]; 90% in assay [2]; 100% in assay [3]; 142% in assay [4]; 99% in assay [5]; 24% in assay [6]. The residual activity in assay [7] is 72%; in assay [8], 18%; in assay [9], 86%; in assay [10] it was 26%; in assay [11], 65%; in assay [12], 55%. Further, the residual activity in assay [13] is 77%; in assay [14], 42%.
With `COc1cc2c(Oc3ccc(-c4nc5ccccc5s4)cc3)ncnc2cc1OCCCN1CCN(C)CC1`, the residual activity in [1] was found to be 80%; in [2], 95%; in [3], 114%; in assay [4] it was 135%; in assay [5], 81%; in [6], 82%. Moreover, the residual activity in assay [7] was determined as 73%; in [8], 40%; in [9], 67%; in assay [10], 23%; in assay [11], 58%; in [12], 72%. Besides, the residual activity is 77% in assay [13] and 41% in assay [14].
